Results published in patent US6107070A, “Human manganese superoxide dismutase proteins” (University of Florida, priority 1998, dated 2000).
Where a chain is given by its changes, count along the chain named.

Key:
Format in all cases: biochemical
[1] = target: T1, human manganese superoxide dismutase (hMn SOD), wild type, SEQ ID NO:2 (Homo sapiens, UniProt P04179); assay: Decay of superoxide catalyzed by wild-type hMnSOD, pulse radiolysis; conditions: obtained from Table 3 data and eqs 5-9 of Bull et al. (1991)
T1 construct: where it is then cleaved off leaving the mature protein
T1 sequence (P04179 25-222): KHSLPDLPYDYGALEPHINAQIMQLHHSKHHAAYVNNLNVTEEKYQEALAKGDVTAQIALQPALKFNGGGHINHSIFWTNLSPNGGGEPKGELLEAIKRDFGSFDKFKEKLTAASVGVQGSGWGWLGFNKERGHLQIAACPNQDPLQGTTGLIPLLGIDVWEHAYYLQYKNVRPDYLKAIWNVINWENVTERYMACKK
Procedure: (§1) Experiments were carried out at the Center for Fast Kinetics Research at the University of Texas at Austin using a 4-Mev van der Graaff accelerator. A single high-dose electron pulse was used to generate superoxide radical anions from oxygen in acqueous solutions containing 10 mM sodium formate as hydroxyl radical scavenger (Schwartz, 1981) and 50 μM EDTA in addition to buffer and enzyme. All pulse radiolysis experiments were carried out at 20 ° C. The dismutation of O2^- was followed spectrophotometrically from its absorbance at 250 nm (ε=2000M^1 cm^1, Rabani and Nielson, 1969) with a path length of 2.5 cm. Progress curves for each set of 6 to 9 experiments were averaged. Exposure to ultraviolet radiation was minimized by opening a mechanical shutter a fraction of a second before each pulse.

[2] = target: T2, human manganese superoxide dismutase (hMn SOD) variant Q143N (Gln 143 replaced by Asn), SEQ ID NO:3 (Homo sapiens, UniProt P04179, Q167N); assay: Decay of superoxide catalyzed by Q143N hMnSOD, pulse radiolysis; conditions: FIG. 1; first-order fit, 35 μM enzyme, pH 9.6, 20° C.
T2 construct: as a mature protein tagged with an extra Met at the amino terminus; made in house; host or cells: E. coli QC774 (SodA/SodB mutant), pTrc99A
T2 sequence (P04179 25-222 Q167N): T1 sequence (P04179 25-222) with Q143N
Procedure: The solutions contained 0.5 μM wild-type MnSOD or 35 μM Q143N hMnSOD and 50 μM EDTA, 10 mM sodium formate, and 2.0 mM sodium pyrophosphate and pH 9.6 and 20° C. The solid line for Q143N hMnSOD is least-squares fit to a first-order process corresponding to Kcat /Km =1×10^6 M^-1 s^-1.
as §1

[3] = target: T3, human manganese superoxide dismutase (hMn SOD) variant H30N (His 30 replaced by Asn) (Homo sapiens, UniProt P04179, H54N); assay: Disproportionation of superoxide by H30N hMnSOD, stopped-flow, 20° C.; conditions: pH 9.6, 20° C.
T3 construct: as a mature protein tagged with an extra Met at the amino terminus; made in house
T3 sequence (P04179 25-222 H54N): T1 sequence (P04179 25-222) with H30N
Procedure: (§2) Experiments were based on the stabilization of KO2 in aprotic solvent and the subsequent large dilution of this solution by an aqueous solution of enzyme in a stopped-flow apparatus, as described by McClune and Fee (1978). KO2 was dissolved in a mixture of dimethyl sulfoxide and […] (2:1 by volume; Aldrich, spectrophotometric grade) with solubility of KO2 enhanced with 18-crown-6 (Valentine and Curtis, 1975). The stopped-flow spectrophotometer (Kinetic Instruments, Ann Arbor, Mich.) was capable of efficient mixing of this solution with an acqueous solution of enzyme in buffer with a dead time between 1.5 and 2.0 ms. One drive syringe (capacity 50 μl) contained the aprotic solution of O2. This was diluted fifty-fold by the contents of a second syringe (capacity 2.5 ml) which contained enzyme, EDTA, and buffer. The decay of superoxide in initial velocity experiments and progress curves was monitored by its absorption at 250 to 300 nm. Stopped-flow experiments were carried out at […]. Four or more kinetic traces were averaged to reduce noise. Steady-state parameters were obtained by least-squares analysis of such data (Leatherbarrow (1987) "Enzfitter: a nonlinear regression data analysis program for the IBM PC" Elsevier BIOSOFT, Cambridge).
(§3) In the present study, several novel hMnSOD proteins containing substitutions of His 30 (referring to the amino acid sequence of SEQ ID NO:2) were prepared by PCR site directed mutagenesis and purified by column chromatography, as described in the Materials and Methods section above, and as also described by Hsu et al. (1996) J. Biol. Chem. 271: 1768; and Hsieh et al. (1998) Biochemistry 37: 4731. In particular, His 30 was substituted with each of Ala, Asn, Ser and Gln. The resulting novel hMnSOD proteins containing a His 30 substitution were then assayed for enzymatic activity and product inhibition at 20° C. by measuring the absorbance of superoxide at 250 nm using stopped-flow spectrophotometry, as described above in the Materials and Methods section. […]

[4] = target: T4, human manganese superoxide dismutase (hMn SOD) variant H30A (His 30 replaced by Ala) (Homo sapiens, UniProt P04179, H54A); assay: Disproportionation of superoxide by H30A hMnSOD, stopped-flow, 20° C.; conditions: pH 9.6, 20° C.
T4 construct: as a mature protein tagged with an extra Met at the amino terminus; made in house
T4 sequence (P04179 25-222 H54A): T1 sequence (P04179 25-222) with H30A
Procedure: as §2, §3

[5] = target: T5, human manganese superoxide dismutase (hMn SOD) variant H30K (Homo sapiens, UniProt P04179, H54K); assay: Disproportionation of superoxide by H30K hMnSOD, 20° C.; conditions: Table 4; pH 9.4, 20° C.
T5 construct: as a mature protein tagged with an extra Met at the amino terminus; made in house
T5 sequence (P04179 25-222 H54K): T1 sequence (P04179 25-222) with H30K

## [O]O [superoxide]
[1]
  Km: 50 µM
[2]
  kcat /Km: 1e+06 M⁻¹ s⁻¹
[3]; Table 4
  kcat: 2.9 ms^.1
  kcat /Km: 91 μM^.1 S^.1
[3]; Table 5
  ko /[E] (rate constant for the zero-order region of catalysis): 1,300 S^.1
[4]; Table 4
  kcat: 1.9 ms^.1
  kcat /Km: 20 μM^.1 S^.1
[4]; Table 5
  ko /[E] (rate constant for the zero-order region of catalysis): 610 S^.1
[5]
  kcat: 0.74 ms^.1
  kcat /Km: 0.80 μM^.1 S^.1
